From patent publication US12410179B2, “Modulators of TNF alpha activity and uses thereof” (RayThera, Inc., priority 2023, dated 2025)

Each molecule was assayed against TNFα (Homo sapiens, UniProt P01375) (assay: HEK-Blue hTNFα reporter assay). Details: HEK-Blue hTNFα reporter cells, SEAP readout; read-out: IC50 Range.
TNFα, sequence (P01375 77-233 limits assumed): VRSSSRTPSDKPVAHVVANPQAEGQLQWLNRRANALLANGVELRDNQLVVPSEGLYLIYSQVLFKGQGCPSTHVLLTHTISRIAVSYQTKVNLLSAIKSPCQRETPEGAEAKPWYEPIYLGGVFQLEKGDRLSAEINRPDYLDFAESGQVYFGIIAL
Assay type: cell-based
Parameters: purchased R&D biosystem (R&D Systems) 210-TA-020/CF
Procedure, shortened: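 Compounds preincubated 1 h at 37 °C with recombinant hTNFα ([…]), then added to HEK293 NF-κB-SEAP reporter cells, 10000 cells/well, 24 h at 37 °C. SEAP read by QUANTI-Blue at OD620; % inhibition versus stimulated and unstimulated controls, IC50 by 4-parameter fit.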
[2H]C([2H])([2H])N1C(=O)c2cccc(OC(F)F)c2[C@H]2C[C@@H]1c1nn3cc(F)c(-c4cnc([C@]5(O)C[C@@](C)(N)C5)nc4)cc3c12 [Example 284] was tested, and the IC50 was < 25 nM.
CN1C(=O)c2cccc(OC(F)F)c2[C@H]2C[C@@H]1c1nn3ccc(-c4cnc(C5(O)CCC(F)(F)CC5)nc4)cc3c12 [Example 72] was tested, and the IC50 was < 25 nM.
CC(=O)c1cccc2c1[C@H]1C[C@H](c3nn4ccc(-c5cnc(C6(N)CCC6)nc5)cc4c31)N(C)C2=O [Example 314, (7R,14R)-1-acetyl-12-(2-(1-aminocyclobutyl)pyrimidin-5-yl)-6-methyl-6,7-dihydro-7,14-methanobenzo[c]pyrido[1′,2′:1,5]pyrazolo[4,3-f]azocin-5 (14H)-one] was tested, and the IC50 was < 25 nM.
For CN1C(=O)c2cccc(OC(F)F)c2[C@H]2C[C@@H]1c1nn3ccc(-c4cnc(C5(N)CC5)nc4)cc3c12 [Example 17], the IC50 was < 25 nM.
With [2H]C([2H])([2H])N1C(=O)c2cccc(OC(F)F)c2[C@H]2C[C@@H]1c1nn3ccc(-c4cnc(C5(O)CN(C)C5)nc4)cc3c12 [Example 278] the IC50 was < 25 nM.
CN1C(=O)c2cccc(OC(F)F)c2[C@H]2C[C@@H]1c1nn3ccc(C4=CCC(C(C)(C)O)OC4)cc3c12 (stereo in doubt) [Example 319, (7R,14S)-1-(difluoromethoxy)-12-((S)-6-(2-hydroxypropan-2-yl)-5,6-dihydro-2H-pyran-3-yl)-6-methyl-6,7-dihydro-7,14-methanobenzo[c]pyrido[1′,2′:1,5]pyrazolo[4,3-f]azocin-5 (14H)-one] was tested, and the IC50 was < 25 nM.
In the case of CN1C(=O)c2cccc(OC(F)F)c2[C@H]2C[C@@H]1c1nn3ccc(-c4cnc(N5CCC(O)CC5)nc4)cc3c12 [Example 156], the IC50 is reported as < 25 nM.
In the case of CN1C(=O)c2cccc(OC(F)F)c2[C@H]2C[C@@H]1c1nn3cc(F)c(-c4cnc([C@]5(O)C[C@@H](O)C5)nc4)cc3c12 [Example 125], the IC50 is reported as < 25 nM.
In the case of COc1cccc2c1[C@H]1C[C@H](c3nn4ccc(-c5cnc(C6(N)CCC6)nc5)cc4c31)N(C)C2=O [Example 226], the IC50 is reported as < 25 nM.
CN1C(=O)c2cccc(OC(F)F)c2[C@H]2C[C@@H]1c1nn3ccc(-c4cnc([C@]5(N)C[C@@](C)(C(=O)O)C5)nc4)cc3c12 [Example 88] was tested, and the IC50 was < 25 nM.
With [2H]C([2H])([2H])N1C(=O)c2cccc(OC(F)F)c2[C@H]2C[C@@H]1c1nn3ccc(-c4cnc(C5(N)CCC5)nc4C)cc3c12 [Example 241] the IC50 was < 25 nM.
For CN1C(=O)c2cccc(OC(F)F)c2[C@H]2C[C@@H]1c1nn3ccc(-c4cnc([C@]5(O)CC[C@@H](O)C5)nc4)cc3c12 [Example 101], the IC50 was < 25 nM.
[2H]C([2H])([2H])N1C(=O)c2cccc(OC(F)F)c2[C@H]2C[C@@H]1c1nn3cc(F)c(-c4cnc(C5(N)CCC5)cn4)cc3c12 [Example 199] was tested, and the IC50 was < 25 nM.
In the case of CN1C(=O)c2cc(F)cc(OC(F)F)c2[C@H]2C[C@@H]1c1nn3ccc(-c4ccc(P(C)(C)=O)nc4)cc3c12 [Example 35], the IC50 is reported as < 25 nM.
CN1C(=O)c2cccc(OC3CC3)c2[C@H]2C[C@@H]1c1nn3ccc(-c4cnc([C@]5(O)C[C@@](C)(O)C5)nc4)cc3c12 [Example 37] was tested, and the IC50 was < 25 nM.
With CN1C(=O)c2cccc(OC(F)F)c2[C@H]2C[C@@H]1c1nn3cc(F)c(-c4cnc(C5(N)CCC5)nc4)nc3c12 [Example 23] the IC50 was < 25 nM.
In the case of CN1C(=O)c2cccc(OC(F)F)c2[C@H]2C[C@@H]1c1nn3ccc(-c4cnc([C@@](C)(O)C5CC5)nc4)cc3c12 [Example 80], the IC50 is reported as < 25 nM.
With [2H]C([2H])([2H])N1C(=O)c2cccc(OC(F)F)c2[C@H]2C[C@@H]1c1nn3cc(F)c(-c4cnc(C5(N)COC5)nc4)nc3c12 [Example 178] the IC50 was < 25 nM.
[2H]C([2H])([2H])N1C(=O)c2cccc(OC(F)F)c2[C@H]2C[C@@H]1c1nn3cnc(-c4cnc([C@]5(O)C[C@](C)(C#N)C5)nc4)cc3c12 [Example 273] was tested, and the IC50 was < 25 nM.
C[C@]1(C#N)C[C@](N)(c2ncc(-c3ccn4nc5c(c4n3)[C@@H]3C[C@H]5NC(=O)c4cccc(OC(F)F)c43)cc2F)C1 [Example 173] was tested, and the IC50 was < 25 nM.
An IC50 of 25 to 100 nM was found for [2H]C([2H])([2H])N1C(=O)c2cccc(C#N)c2[C@H]2C[C@@H]1c1nn3cc(F)c(-c4cnc(C5(N)CCC5)nc4)cc3c12 [Example 307] in this work.
An IC50 of 25 to 100 nM was found for [2H]C([2H])([2H])N1C(=O)c2cccc(C#N)c2[C@H]2C[C@@H]1c1nn3cc(F)c(-c4cnc([C@]5(N)C[C@@](C)(C#N)C5)nc4)nc3c12 [Example 311] in this work.
With [2H]C([2H])([2H])N1C(=O)c2cccc(OC(F)F)c2[C@H]2C[C@@H]1c1nn3cnc(-c4cnc(C(C)(C)N)nc4)cc3c12 [Example 298] the IC50 was < 25 nM.
In the case of [2H]C([2H])([2H])N1C(=O)c2cccc(OC(F)F)c2[C@H]2C[C@@H]1c1nn3ccc(-c4cnc5c(c4)CC[C@]5(C)N)cc3c12 [Example 327], the IC50 is reported as < 25 nM.
Cc1nc(C2(N)CCC2)ncc1-c1ccn2nc3c(c2n1)[C@@H]1C[C@H]3NC(=O)c2cccc(OC(F)F)c21 [Example 275] was tested, and the IC50 was < 25 nM.
C[C@](O)(c1ncc(-c2ccn3nc4c(c3c2)[C@@H]2C[C@H]4NC(=O)c3cccc(OC(F)F)c32)cn1)C(F)F [Example 152] was tested, and the IC50 was < 25 nM.
In the case of [2H]C([2H])([2H])N1C(=O)c2cccc(OC(F)F)c2[C@H]2C[C@@H]1c1nn3ccc(-c4ncc(C5(N)CCC5)cn4)cc3c12 [Example 211], the IC50 is reported as < 25 nM.
O=C1N[C@@H]2C[C@H](c3c(OC(F)F)cccc31)c1c2nn2ccc(-c3cnc(C4(O)CCC4)nc3)cc12 [Example 140] was tested, and the IC50 was < 25 nM.
CN1C(=O)c2ccnc(OC(F)F)c2[C@H]2C[C@@H]1c1nn3ccc(-c4cnc([C@]5(O)C[C@@](C)(O)C5)nc4)cc3c12 [Example 320, (7R,14S)-1-(difluoromethoxy)-12-(2-((1s,3R)-1,3-dihydroxy-3-methylcyclobutyl)pyrimidin-5-yl)-6-methyl-6,7-dihydro-7,14-methanopyrido[4,3-c]pyrido[1′,2′:1,5]pyrazolo[4,3-f]azocin-5 (14H)-one] was tested, and the IC50 was < 25 nM.
With C[C@]1(O)C[C@](N)(c2ncc(-c3ccn4nc5c(c4c3)[C@@H]3C[C@H]5NC(=O)c4ccc(F)c(OC(F)F)c43)cn2)C1 [Example 229] the IC50 was < 25 nM.
In the case of CN1C(=O)c2cccc(OC(F)F)c2[C@H]2C[C@@H]1c1nn3cnc(-c4cnc([C@]5(N)C[C@@](C)(C#N)C5)c(F)c4)cc3c12 [Example 59], the IC50 is reported as < 25 nM.
With C[C@]1(C#N)C[C@](N)(c2ccc(-c3ccn4nc5c(c4c3)[C@@H]3C[C@H]5NC(=O)c4cccc(OC(F)F)c43)cn2)C1 [Example 212] the IC50 was < 25 nM.
[2H]C([2H])([2H])N1C(=O)c2cccc(OC(F)F)c2[C@H]2C[C@@H]1c1nn3ccc(-c4cnc([C@]5(N)C[C@@](C)(C#N)C5)nc4C)nc3c12 [Example 230] was tested, and the IC50 was < 25 nM.
With CN1C(=O)c2cccc(OC(F)F)c2[C@H]2C[C@@H]1c1nn3ccc(-c4cnc([C@]5(O)C[C@@](C)(C#N)C5)nc4)cc3c12 [Example 18] the IC50 was < 25 nM.
With [2H]C([2H])([2H])N1C(=O)c2cccc(OC(F)F)c2[C@H]2C[C@@H]1c1nn3ccc(-c4cnc(N5CC(C)(N)C5)nc4)cc3c12 [Example 291] the IC50 was < 25 nM.
With C[C@]1(C#N)C[C@](N)(c2ncc(-c3ccn4nc5c(c4c3)[C@@H]3C[C@H]5NC(=O)c4cccc(OC(F)F)c43)cc2F)C1 [Example 190] the IC50 was < 25 nM.
In the case of CN1C(=O)c2ccc(F)c(OC(F)F)c2[C@H]2C[C@@H]1c1nn3ccc(-c4ccc(P(C)(C)=O)nc4)cc3c12 [Example 34], the IC50 is reported as < 25 nM.
With [2H]C([2H])([2H])N1C(=O)c2cccc(OC(F)F)c2[C@H]2C[C@@H]1c1nn3ccc(-c4cnc([C@]5(C#N)C[C@@](C)(N)C5)c(F)c4)cc3c12 [Example 292] the IC50 was < 25 nM.
For CN1C(=O)c2cccc(OC(F)F)c2[C@H]2C[C@@H]1c1nn3ccc(-c4cnc([C@@](C)(O)C5COC5)nc4)cc3c12 [Example 85], the IC50 was < 25 nM.
CN1C(=O)c2cccc(OC(F)F)c2[C@H]2C[C@@H]1c1nn3cc(F)c(-c4cnc([C@@](C)(O)CO)nc4)cc3c12 [Example 115] was tested, and the IC50 was < 25 nM.
An IC50 of 100 to 1000 nM was found for CN1C(=O)c2cccc(OC(F)F)c2[C@@H]2C[C@H]1c1nn3ccc(-c4cnc(C5(N)CCC5)nc4)nc3c12 [Example 2, (7S,14R)-12-(2-(1-aminocyclobutyl)pyrimidin-5-yl)-1-(difluoromethoxy)-6-methyl-6,7-dihydro-7,14-methanobenzo[c]pyrimido[1′,2′:1,5]pyrazolo[4,3-f]azocin-5 (14H)-one] in this work.
For [2H]C([2H])([2H])N1C(=O)c2cccc(OC(F)F)c2[C@H]2C[C@@H]1c1nn3ccc(-c4cnc(C(C)(C)N)c(F)c4)cc3c12 [Example 325], the IC50 was < 25 nM.
In the case of CN1C(=O)c2cccc(OC(F)F)c2[C@H]2C[C@@H]1c1nn3ccc(-c4cnc(C(C)(C)N)nc4)cc3c12 [Example 324], the IC50 is reported as < 25 nM.
With CN1C(=O)c2cccc(OC(F)F)c2[C@H]2C[C@@H]1c1nn3cc(F)c(-c4cnc([C@]5(O)C[C@@](C)(O)C5)cn4)cc3c12 [Example 43] the IC50 was < 25 nM.
For C[C@H](O)[C@H](O)c1ncc(-c2ccn3nc4c(c3c2)[C@@H]2C[C@H]4N(C)C(=O)c3cccc(OC(F)F)c32)cn1 [Example 135], the IC50 was < 25 nM.
With C[C@](O)(CC#N)c1ncc(-c2ccn3nc4c(c3c2)[C@@H]2C[C@H]4NC(=O)c3cccc(OC(F)F)c32)cn1 [Example 164] the IC50 was < 25 nM.
For C[C@]1(O)C[C@](O)(c2ncc(-c3ccn4nc5c(c4c3)[C@@H]3C[C@H]5NC(=O)c4cccc(OC(F)F)c43)cn2)C1 [Example 38], the IC50 was < 25 nM.
An IC50 of 25 to 100 nM was found for [2H]C([2H])([2H])N1C(=O)c2cccc(C#N)c2[C@H]2C[C@@H]1c1nn3ccc(-c4cnc(C5(N)CCC5)nc4)nc3c12 [Example 310] in this work.
In the case of [2H]C([2H])([2H])N1C(=O)c2cccc(OC(F)F)c2[C@H]2C[C@@H]1c1nn3cc(F)c(-c4cnc([C@]5(N)C[C@@](C)(C#N)C5)cn4)cc3c12 [Example 200], the IC50 is reported as < 25 nM.

Same assay, conditions: HEK-Blue hTNFα reporter cells; read-out: TNFα reporter, Emax
An Emax of 98% was found for CN1C(=O)c2cccc(OC(F)F)c2[C@H]2C[C@@H]1c1nn3cnc(-c4cnc([C@]5(N)C[C@@](C)(C#N)C5)c(F)c4)cc3c12 [Example 59] in this work.

Same assay, conditions: HEK-Blue hTNFα reporter cells; read-out: TNFα reporter, IC50
An IC50 of 4.1 nM was found for CN1C(=O)c2cccc(OC(F)F)c2[C@H]2C[C@@H]1c1nn3cnc(-c4cnc([C@]5(N)C[C@@](C)(C#N)C5)c(F)c4)cc3c12 [Example 59] in this work.
